# Starred links: 1 amine or outer side, 2 acyl side, 3 side chain; linkers in the order of their positions; H or OH if unused. Positions of bridges follow the written chain, without caps; N, C: chain ends. Residues, ends and D or L forms follow the SMILES beside them. Groups on a side chain read outwards from the residue. *: point of attachment. γGlu = O=C(O)[C@H](CCC(=O)[*:2])N[*:1]; Palmitoyl = CCCCCCCCCCCCCCCC(=O)*; Isovaleryl = CC(C)CC(=O)*
# Target: T1, human ferroportin (Homo sapiens, UniProt Q9NP59)
# T1 construct: expressed in transfected cells
# T1 sequence (Q9NP59 1-571): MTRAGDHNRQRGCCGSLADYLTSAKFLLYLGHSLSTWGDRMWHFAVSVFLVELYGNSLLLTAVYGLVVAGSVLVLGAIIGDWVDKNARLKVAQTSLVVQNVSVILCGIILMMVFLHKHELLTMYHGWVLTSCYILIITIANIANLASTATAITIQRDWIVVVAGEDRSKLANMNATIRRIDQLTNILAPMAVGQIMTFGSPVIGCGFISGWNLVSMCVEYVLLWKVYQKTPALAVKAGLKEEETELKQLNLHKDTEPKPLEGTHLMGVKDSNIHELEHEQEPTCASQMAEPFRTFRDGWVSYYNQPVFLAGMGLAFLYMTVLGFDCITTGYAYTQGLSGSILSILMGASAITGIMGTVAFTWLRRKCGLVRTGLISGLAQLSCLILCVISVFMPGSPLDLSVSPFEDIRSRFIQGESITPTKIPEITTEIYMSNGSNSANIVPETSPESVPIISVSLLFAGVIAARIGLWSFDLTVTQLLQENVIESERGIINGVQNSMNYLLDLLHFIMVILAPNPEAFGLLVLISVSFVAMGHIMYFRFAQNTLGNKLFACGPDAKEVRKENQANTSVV
# Assay: Ferroportin internalization / degradation, HEK-GFP cell based assay (HEK293 cells stably expressing ferroportin-GFP, decrease in GFP fluorescence)
# Conditions: Table 3 monomer analogues; ferroportin-GFP HEK293 cells, 18-24 h incubation; read-out: HEK-GFP cell based assay (potency EC50)
# Experimental: Peptide analogues were tested in vitro for induction of internalization of the human ferroportin protein. Following internalization, the […] are degraded. The assay measures a decrease in fluorescence of the receptor.
# The cDNA encoding the human ferroportin (SLC40A1) was cloned from a cDNA clone from Origene (NM_014585). The DNA encoding the ferroportin was amplified by PCR using primers also encoding terminal restriction sites for subcloning, but without the termination codon. The ferroportin receptor was subcloned into a mammalian GFP expression vector containing a neomycin (G418) resistance marker in such that the reading frame of the ferroportin was fused in frame with the GFP protein. The fidelity of the DNA encoding the protein was confirmed by DNA sequencing. HEK293 cells were used for transfection of the ferroportin-GFP receptor expression plasmid. The cells were grown according to standard protocol in growth medium and transfected with the plasmids using Lipofectamine (manufacturer's protocol, Invitrogen). […] The cells were propagated and frozen in aliquots.
# Compound was added to desired final concentration for at least 18 hours in the incubator. […] Compound was added to desired final concentration for at least 18 hours but no more than 24 hours in the incubator.
# The EC50 of these reference compounds for ferroportin degradation was determined according to the activity assay described above. These peptides served as control standards.
# These values were determined as described herein.
row,DC50 [nM],Compound
1,13,CCCCCCCCCCCCCCCC(=O)N[C@@H](CCC(=O)NCCCC[C@@H]1NC(=O)[C@H](Cc2ccccc2)NC(=O)[C@H](CCCCN)NC(=O)[C@H]([C@@H](C)CC)NC(=O)[C@@H](NC(=O)[C@@H]2CCCN2C(=O)[C@H](Cc2ccccc2)NC(=O)[C@H](Cc2c[nH]cn2)NC(=O)[C@@H](NC(=O)[C@H](CC(=O)O)NC(=O)CC(C)C)[C@@H](C)O)CSSC(C)(C)[C@@H](C(=O)N[C@@H](CCCCN)C(N)=O)NC(=O)CNC(=O)[C@H](CCCCN)NC(=O)[C@H](CO)NC(=O)[C@H](CCCNC(=N)N)NC(=O)[C@@H]2CCCN2C1=O)C(=O)O [Compound 5]
2,11,CCCCCCCCCCCCCCCC(=O)N[C@@H](CCC(=O)NCCCC[C@@H]1NC(=O)[C@H](Cc2ccccc2)NC(=O)[C@H](CCCCN)NC(=O)[C@H]([C@@H](C)CC)NC(=O)[C@@H](NC(=O)[C@@H]2CCCN2C(=O)[C@H](Cc2ccccc2)NC(=O)[C@H](Cc2c[nH]cn2)NC(=O)[C@@H](NC(=O)[C@H](CC(=O)O)NC(=O)CC(C)C)[C@@H](C)O)CSSC[C@@H](C(=O)N[C@@H](CCCCN)C(N)=O)NC(=O)CN(C)C(=O)[C@H](CCCCN)NC(=O)[C@H](CO)NC(=O)[C@H](CCCNC(=N)N)NC(=O)[C@@H]2CCCN2C1=O)C(=O)O [Compound 6]
3,68,"CCCCCCCCCCCCCCCC(=O)N[C@@H](CCC(=O)NCCCC[C@@H]1NC(=O)[C@H](Cc2ccccc2)NC(=O)[C@H](CCCCN)NC(=O)[C@H]([C@@H](C)CC)NC(=O)[C@@H](NC(=O)[C@@H]2CCCN2C(=O)[C@H](Cc2ccccc2)NC(=O)[C@H](Cc2c[nH]cn2)NC(=O)[C@@H](NC(=O)[C@H](CC(=O)O)NC(=O)CC(C)C)[C@@H](C)O)C(C)(C)SSC[C@@H](C(=O)N[C@@H](CCCCN)C(N)=O)NC(=O)CNC(=O)[C@H](CCCCN)NC(=O)[C@H](CO)NC(=O)[C@H](CCCNC(=N)N)NC(=O)[C@@H]2CCCN2C1=O)C(=O)O [Compound 4, Isovaleric acid-DTHFP-[Pen]-IKF-[Lys(IsoGlu-Palm)]-PRSKGCK-NH2]"
4,14,CC[C@H](C)[C@@H]1NC(=O)[C@@H](NC(=O)[C@@H]2CCCN2C(=O)[C@H](Cc2ccccc2)NC(=O)[C@H](Cc2c[nH]cn2)NC(=O)[C@@H](NC(=O)[C@H](CC(=O)O)NC(=O)CC(C)C)[C@@H](C)O)CSSC[C@@H](C(=O)N[C@@H](CCCCN)C(N)=O)NC(=O)CNC(=O)[C@H](CCCCN)NC(=O)[C@H](CO)NC(=O)[C@H](CCCNC(=N)N)NC(=O)[C@@H]2CCCN2C(=O)[C@H](CCCCNC(C)=O)NC(=O)[C@H](Cc2ccccc2)NC(=O)[C@H](CCCCN)NC1=O [Compound 25]
5,15,"CCCCCCCCCCCCCCCC(=O)N[C@@H](CCC(=O)NCCCC[C@@H]1NC(=O)[C@H](Cc2ccccc2)NC(=O)[C@H](CCCCN)NC(=O)[C@H]([C@@H](C)CC)NC(=O)[C@@H](NC(=O)[C@@H]2CCCN2C(=O)[C@@H](NC(=O)[C@H](Cc2c[nH]cn2)NC(=O)[C@@H](NC(=O)[C@H](CC(=O)O)NC(=O)CC(C)C)[C@@H](C)O)C(c2ccccc2)c2ccccc2)CSSC[C@@H](C(=O)N[C@@H](CCCCN)C(N)=O)NC(=O)CN(C)C(=O)[C@H](CCCCN)NC(=O)[C@H](CO)NC(=O)[C@H](CCCNC(=N)N)NC(=O)[C@@H]2CCCN2C1=O)C(=O)O [Compound 8, Isovaleric acid-DTH-[Dpa]-PCIKF-[Lys(IsoGlu-Palm)]-PRSK-[Sar]-CK-NH2]"
6,22,CCCCCCCCCCCCCCCC(=O)N[C@@H](CCC(=O)NCCCC[C@@H]1NC(=O)[C@H](Cc2ccccc2)NC(=O)[C@H](CCCCN)NC(=O)[C@H](CCCCN)NC(=O)[C@@H](NC(=O)[C@@H]2CCCN2C(=O)[C@H](Cc2ccccc2)NC(=O)[C@H](Cc2c[nH]cn2)NC(=O)[C@@H](NC(=O)[C@H](CC(=O)O)NC(=O)CC(C)C)[C@@H](C)O)CSSC[C@@H](C(=O)N[C@@H](CCCCN)C(N)=O)NC(=O)CNC(=O)[C@H](CCCCN)NC(=O)[C@H](CO)NC(=O)[C@H](CCCNC(=N)N)NC(=O)[C@@H]2CCCN2C1=O)C(=O)O [Compound 11] (Isovaleryl-DTHFPCKKFK([γGlu-Palmitoyl])PRSKGCK-NH2; disulfide 6-16)

# From patent US11472842B2 (Protagonist Therapeutics, Inc., priority 2015, dated 2022)
